Experimental data as given in patent publication US6177474A, “Polyhydroxyphenol derivatives and preventive and therapeutic agents for bone and cartilage diseases containing the same” (Hoechst Marion Roussel, priority 1996, dated 2001).

System: bone cells containing osteoclast cells
Assay: Pit formation assay: inhibition of osteolysis (absorption pits on ivory slices)
Assay type: cell-based, ICR mice
Settings: for inhibition at 10 µM: Mus musculus, Osteoclast, read-out: Ratio of inhibition (%); for inhibition at 10 µM / Ratio of inhibition (%): 0% = pits with rPTH (1×10^-8 M) without medicine, 100% = no absorption pit; for Ratio of inhibition (%): 4320 min
Description: ICR mice 11-12 days old (purchased from Charles River Japan) were euthanized by anesthesia with ether and immediately immersed in 70% ethanol for disinfection. By the use of ophthalmologist scissors and pincers sterilized in advance with ethanol, femur and tibia were excised from the sacrificed mice and chopped into small pieces in an α-MEM culture medium (purchased from Flow Laboratories Corp.). containing 5% FBS (purchased from Irvine Scientific Corp.), 100 U/ml penicillin and 100 μg/ml streptomycin. The supernatant formed consequently was recovered by pipeting, cleaned with the culture broth, and suspended in a 5% FBS α-MEM culture broth to obtain bone cells containing osteoclast cells. The supernatant of a bone cell-floating liquid formed after 3 minutes' standing of the bone cells at rest was recovered and passed through a mesh (cell strainer, 70 μm, purchased from Falcon Corp.). The filtrate was adjusted to a cell concentration of 1×10^7 /ml and used for the pit formation assay.
An ivory piece was cut into slices, 150 μm in thickness, by the use of a precision low-speed cutting machine (purchased from Buehler Corp.). Cylindrical holes, 6 mm in diameter, were perforated in the slices by the use of a one-hole punch. The ivory slices were immersed in 70% ethanol and subjected therein to an ultrasonic cleaning treatment twice each for five minutes and washed three times with a sterilized PBS and twice with the culture medium. The ivory slices were set in place on a 96-hole culture plate (purchased from Falcon Corp.). The perforated ivory slices on the culture plate, with a culture broth containing a given compound of the present invention prepared in a concentration of 2×10^-5 M added in a fixed volume of 100 μl (final medicine concentration 1×10^-5 M) to each of the holes and a culture broth containing prepared bone cells in a concentration of 1×10^7 /ml placed in each of the holes, were cultured for three days in a 10% CO2 incubator at 37° C. After the culture, the ivory slices were placed in an aqueous 2 N sodium hydroxide and the cells on the slices were removed by the use of a rubber spatula. The ivory slices were washed with water and methanol. The absorption pits formed in the ivory slices were dyed with Coomassie Brilliant Blue and were counted under a microscope. Though the numbers of absorption pits were naturally found to disperse among test lots, depending on the ratios of varying specie s of cells in the bone cell suspensions and the lots of animals used, satisfactorily uniform test results were found in one and the same test lot. The ratio of inhibition of osteolysis was calculated on the 100% scale, in which 0% stands for the number of absorption pits found in the culture broth in the presence of rPTH (1×10^-8 M) and in the absence of a medicine and 100% for total absence of absorption pit.
The test described above was performed in a total of ten runs, Tests 1-10.
In the columns titled "Added medicine No." found in Table 2 and Table 3, the symbol (-) denotes a control involving no addition of medicine and the numerical No. denotes the No. of the compound mentioned above.

[1] = compound 10^-5 M, 3 days culture at 37° C., 10% CO2, control per test run given as (-)

Row | Compound | No. of absorption pits (Mean ± SD) (72 h, 10 µM) | inhibition at 10 µM (72 h, compound 10^-5 M) | No. of absorption pits (Mean ± SD) [1] | Ratio of inhibition (%) (compound 10^-5 M, 10 µM)
1 | CC(C)=CCOc1ccc(C(=O)CC(C)C)c(O)c1 [Compound 53, {2-hydroxy-4-(3-methyl-2-butenyloxy)phenyl} (2-methylpropyl) ketone] | 55.1 ± 11.1 | 67.8% |  | 
2 | CC(C)=CCCC(C)=CCC1(CC=C(C)CCC=C(C)C)C(=O)C(C(=O)CC(C)C)=C(O)C=C1O (stereo not shown) [Compound 21, 2,2-bis(3,7-dimethyl-2,6-octadienyl)-3,5-dihydroxy-6-(3-methyl-1-oxobutyl)cyclohexa-3,5-dienone] | 3.5 ± 1.4 | 98.1% |  | 
3 | CC(C)CCc1c(O)c(CCC(C)C)c(O)c(C(=O)CC(C)C)c1O [Compound 37, {3,5-bis(3-methylbutyl)-2,4,6-trihydroxyphenyl} (2-methylpropyl) ketone] | 14.4 ± 4.9 | 91.1% |  | 
4 | CC(C)=CCC1(CC=C(C)C)C(=O)C(C(=O)Cc2ccccc2)=C(O)C=C1O [Compound 41, 3,5-dihydroxy-6-(phenylacetyl)-2,2-bis(3-methyl-2-butenyl)cyclohexa-3,5-dienone] | 3.2 ± 0.7 | 97.4% |  | 
5 | CC(C)CC(=O)c1ccc(O)cc1O [Compound 52, (2,4-dihydroxyphenyl)(2-methylpropyl) ketone] | 94.3 ± 13.8 | 44.9% |  | 
6 | Cc1cc(O)cc(O)c1C(=O)CC(C)C [Compound 47, (2,4-dihydroxy-6-methylphenyl) (2-methylpropyl) ketone] | 179.8 ± 23.8 | 10.9% |  | 
7 | {6-(3-methyl-2-butenyl)-2,4,5-trihydroxyphenyl} (2-methylpropyl) ketonemono(3-methyl-2-butenyl) ether [Compound 27] |  |  | 38.8 ± 6.6 | 80.8%
8 | CC(C)=CCC1=C(O)C(CC=C(C)C)(CC=C(C)C)C(=O)C(C(=O)CC(C)C)=C1O [Compound 16, 3,5-dihydroxy-6-(3-methyl-1-oxobutyl)-2,2,4-tris(3-methyl-2-butenyl)cyclohexa-3,5-dienone] | 0 | 100% |  | 
9 | CC(C)=CCc1c(O)c(CC=C(C)C)c(O)c(C(=O)Cc2ccccc2)c1O [Compound 39, {3,5-bis(3-methyl-2-butenyl)-2,4,6-trihydroxyphenyl} (phenylmethyl) ketone] | 49.2 ± 9.4 | 72.6% |  | 
10 | CC(C)=CCOc1c(CC=C(C)C)c(C)c(C(=O)CC(C)C)c(O)c1CC=C(C)C [Compound 51, {3,5-bis(3-methyl-2-butenyl)-2-hydroxy-6-methyl-4-(3-methyl-2-butenyloxy)phenyl} (2-methylpropyl) ketone] | 102.7 ± 6.2 | 42.8% |  | 
11 | CC(C)=CCc1c(O)cc(O)c(C(=O)C(C)C)c1O [Compound 14, {3-(3-methyl-2-butenyl)-2,4,6-trihydroxyphenyl} (2-propyl) ketone] | 26.0 ± 2.6 | 67.5% |  | 
12 | CC(C)=CCC1=C(O)C(O)(CC=C(C)C)C(=O)C(C(=O)C(C)C)=C1O (stereo not shown) [Compound 29, 2,4-bis(3-methyl-2-butenyl)-6-(2-methyl-1-oxopropyl)-2,3,5-trihydroxycyclohexa-3,5-dienone] | 20.3 ± 2.1 | 79.5% |  | 
13 | CC(C)=CCC1(CC=C(C)C)C(=O)C(C(=O)C(C)C)=C(O)C=C1O [Compound 13, 2,2-bis(3-methyl-2-butenyl)-3,5-dihydroxy-6-(2-methyl-1-oxopropyl)cyclohexa-3,5-dienone] | 16.8 ± 3.6 | 79% |  | 
14 | CC(C)=CCCC(C)=CCc1c(O)cc(O)c(C(=O)Cc2ccccc2)c1O [Compound 46, {3-(3,7-dimethyl-2,6-octadienyl)-2,4,6-trihydroxyphenyl} (phenylmethyl) ketone] | 125.3 ± 12.6 | 44.3% |  | 
15 | CC(C)=CCc1c(O)c(O)cc(C(=O)CC(C)C)c1O [Compound 26, {3-(3-methyl-2-butenyl)-2,4,5-trihydroxyphenyl} (2-methylpropyl) ketone] | 29.3 ± 4.8 | 85.5% |  | 
16 | CC(C)=CCc1c(O)cc(O)c(C(=O)Cc2ccccc2)c1O [Compound 42, {3-(3-methyl-2-butenyl)-2,4,6-trihydroxyphenyl} (phenylmethyl) ketone] | 31.7 ± 3.6 | 74.7% |  | 
17 | CC(C)=CCC1=C(O)C(CC=C(C)C)(CC=C(C)C)C(=O)C(C(=O)CC(C)CCCC(C)C)=C1O (stereo not shown) [Compound 22, 3,5-dihydroxy-6-(3,7-dimethyl-1-oxooctyl)-2,2,4-tris(3-methyl-2-butenyl)cyclohexa-3,5-dienone] | 3.5 ± 1.1 | 98.1% |  | 
18 | CC(C)CC(=O)C1=C(O)C(Cc2ccccc2)=C(O)C(Cc2ccccc2)(Cc2ccccc2)C1=O [Compound 36, 2,2,4-trisbenzyl-6-(3-methyl-1-oxobutyl)-3,5-dihydroxycyclohexa-3,5-dienone] | 3.8 ± 0.9 | 98.1% |  | 
19 | CC(=O)C1=C(O)C(CC=C(C)C)=C(O)C(O)(CC=C(C)C)C1=O (stereo not shown) [Compound 30, 2,4-bis(3-methyl-2-butenyl)-6-(1-oxoethyl)-2,3,5-trihydroxycyclohexa-3,5-dienone] | 21.4 ± 3.9 | 78.2% |  | 
20 | CC(C)=CCCC(C)=CCC1=C(O)C(CC=C(C)CCC=C(C)C)(CC=C(C)CCC=C(C)C)C(=O)C(C(=O)Cc2ccccc2)=C1O (stereo not shown) [Compound 44, 3,5-dihydroxy-6-(phenylacetyl)-2,2,4-tris(3,7-dimethyl-2,6-octadienyl)cyclohexa-3,5-dienone] | 7.7 ± 2.0 | 96.6% |  | 
21 | CC(C)CC(=O)c1c(O)c(Cc2ccccc2)c(O)c(Cc2ccccc2)c1O [Compound 34, {3,5-bisbenzyl-2,4,6-trihydroxyphenyl} (2-methylpropyl) ketone] | 8.2 ± 1.9 | 95.9% |  | 
22 | CC(C)=CCCC(C)=CCc1c(O)c(CC=C(C)CCC=C(C)C)c(O)c(C(=O)CC(C)C)c1O [Compound 19, {3,5-bis(3,7-dimethyl-2,6-octadienyl)-2,4,6-trihydroxyphenyl} (2-methylpropyl) ketone] | 55.3 ± 6.1 | 70.5% |  | 
23 | CC(C)=CCC1=C(O)C(O)(CC=C(C)C)C(=O)C(C(=O)c2ccccc2)=C1O (stereo not shown) [Compound 32, 2,4-bis(3-methyl-2-butenyl)-6-benzoyl-2,3,5-trihydroxycyclohexa-3,5-dienone] | 33.9 ± 4.1 | 65.7% |  | 
24 | (2,4,5-trihydroxyphenyl) (2-methylpropyl) ketonemono(3-methyl-2-butenyl) ether [Compound 28] |  |  | 61.3 ± 5.5 | 69.6%
25 | CC(C)=CCc1c(O)c(CC=C(C)C)c(O)c(C(=O)CC(C)C)c1O [Compound 15, {3,5-bis(3-methyl-2-butenyl)-2,4,6-trihydroxyphenyl} (2-methylpropyl) ketone] | 8.3 ± 2.4 | 89.6% |  | 
26 | CC(C)=CCc1c(O)c(O)c(CC=C(C)C)c(C(=O)CC(C)C)c1O [Compound 25, {3,6-bis(3-methyl-2-butenyl)-2,4,5-trihydroxyphenyl} (2-methylpropyl) ketone] | 0 | 100% |  | 
27 | CC(C)CCCC(C)CC(=O)c1c(O)cc(O)cc1O (stereo not shown) [Compound 6, (2,6-dimethylheptyl) (2,4,6-trihydroxyphenyl) ketone] | 63.4 ± 12.4 | 61.4% |  | 
28 | O=C(Cc1ccccc1)c1c(O)cc(O)cc1O [Compound 38, (phenylmethyl) (2,4,6-trihydroxyphenyl) ketone] | 55.8 ± 7.7 | 57.9% |  | 
29 | CC(C)=CCc1cc(C(=O)CC(C)C)c(O)cc1O [Compound 55, {2,4-dihydroxy-5-(3-methyl-2-butenyl)phenyl} (2-methylpropyl)ketone] | 15.8 ± 3.3 | 90.8% |  | 
